Source: patent publication US5498624A, “Selected pyrazolyl derivatives” (Monsanto Company, priority 1995, dated 1996)

Assays:
[1] = test system: Pseudocercosporella herpotrichoides var. tritici; test: Wheat True Eyespot Foliar Protectant Treatment (WES Prot); assay type: in vivo
Method: A) Pathogen/Inoculum Production--Follows as per Example 4.
B) Host Propagation--Wheat seedlings, cv. Hart, are grown to the third leaf stage in a commercial soil preparation, "Metro Mix 200", amended with 100 gm/ft^3 slow release "Osmocote 14-14-1438 . A sufficient number of seeds are planted per pot (5 cm in diameter) in order to insure the production of 5 vigorous seedlings per pot. The plants are maintained in a growth chamber set at 21° C., 80% RH with a 12 hour photoperiod. Light intensity is set at 300 me/m^2 /sec.
C) Test Compound Preparation
1) Experimental compounds--Follows as per Example 1.
2) Controls and Standards--The commercial fungicide, prochloraz, applied at 20 and 5 ppm, is used as the standard for wheat eyespot control. Control treatments are sprayed only with the formulation solution.
D) Compound Application--Wheat plants are sprayed at the three leaf stage. The solution is foliarly applied to the basal stem area of the wheat using a Devilbiss Model 152 hand sprayer. The treated wheat is allowed to air dry at room temperature before being returned to a growth chamber. The growth chamber is set at 15° C., 85% RH and a 12 hour photoperiod. Light intensity is maintained at 300 me/m^2 /sec.
E) Inoculation/Incubation - The treated wheat plants are inoculated 24 hours after chemical treatment. Inoculation is done by spraying a 3×10^5 spores/ml suspension at the basal stem area of each plant. Approximately 1 ml of spore suspension is applied to each plant. Following inoculation, the basal stem area of the plants are covered with a 2-3 cm thick layer of fine vermiculite. The vermiculite is watered lightly and the plants returned to the growth room. The inoculated plants remain in the growth chamber for 4 weeks after which time they are evaluated for disease control.
F) Evaluation--Treatments are evaluated four weeks after inoculation. Disease assessment is based on the percent girdling of the stem base caused by an eyespot lesion. Five plants are rated per replicate. Phytotoxicity and growth effects are also noted at this time.
G) Data--All replicate data is recorded as a percent disease value. Treatment means are calculated and percent disease control is determined by the formula: (control mean--treatment mean)*100/control mean. The inoculated control treatment mean is used for this calculation. The percent protection values for the compounds of the present invention are as set out in the Table below.

Succinate Dehydrogenase = test: Enzyme Inhibition I-50 (WGB): Succinate Dehydrogenase Assay using Septoria nodorum mitochondria; assay type: biochemical; details: DCPIP reduction, read-out: WGB enzyme I-50
Method: Succinate Dehydrogenase Assay using Septoria nodorum mitochondria--Septorianodorum mycelia are prepared from spores via shake culture for 40-48 hours in 3% malt extract at room temperature. The mycelia are harvested by centrifugation and the pellets obtained are stored in the -80° C. freezer until use.
Mitochondria are isolated by a method adapted from White (Biochem. Biophys. Res. Commun. 44 (1971) 1212-19). Fifteen to twenty grams of frozen mycelia are resuspended in a 250 mL medium containing 0.25M sucrose, 5 mM tetrasodium ethylenediamine tetraacetic acid (Na4 EDTA), pH 7.0 containing 1.5 g/liter bovine serum albumin (BSA) and placed in a Bead Beater chamber (BioSpec Products, Bartlesville, Okla.). Zirconium oxide beads (0.5 mm) are added to finish filling the chamber. Four 30s beats separated by 2 rain temperature equilibration periods on ice are used to break the mycelia. The homogenate is centrifuged for 20 min at 3000×g and 4° C. to remove debris. The supernatant is recentrifuged at 20,000×g for 20 min at 4° C. The resulting pellet is resuspended in BSA-free sucrose/EDTA medium (40 mL) using a glass tissue homogenizer and teflon pestle and recentrifuged at 27,000×g for 15 min at 4° C. The pellet is resuspended in BSA-free sucrose/EDTA medium (~3 mL) and used for SDH assays.
The enzyme activity is measured at […] in a solution containing 50 mM potassium phosphate, pH7.2; 1 mM potassium cyanide; 45 μM 2,6-dichlorophenol indophenol (DCPIP) and 17 mM disodium succinate in a final volume of 1 mL with a Perkin-Elmer Lambda 7 ultraviolet-visible spectrophotometer. The test compounds are added as acetone solutions (final concentration of acetone less than or equal to 1%(v/v)). The mitochondrial preparations are used to initiate the reaction. All rates are corrected for succinate-independent dye reduction. Semilog plots of percentage inhibition versus test compound concentration are used to determine inhibition expressed as I50 (μM) which is the concentration required to inhabit the rate of DCPIP reduction by 50%. The commercial fungicide carboxin is used as a standard throughout [I50 (μM)=5.0±2.2; n=52].

Septoria nodorum = test: Wheat Glume Blotch (WGB) In Vitro; assay type: cell-based; design: key: 0: no inhibition of mycelial growth; 1: slight inhibition of mycelial growth; 2: moderate inhibition of mycelial growth; 3: strong inhibition of mycelial growth; details: 4-6 days at 25° C.
Method: A) Pathogen/Inoculum Production--The wheat glume blotch fungus, Septoria nodorum, is cultured on yeast/malt agar at 22° C. and 12 hours fluorescent light. Several sterile loops full of mature pycnidia produced on a 7 day old culture plates are added to 30 mls of 1/4 strength potato dextrose broth. After 15 minutes the suspension is stirred, and adjusted to a concentration of 3×10^5 spores/mi.
B) Compound Preparation and Test Execution--200 μl of 1/4 strength potato dextrose broth is placed in each well of a 96 well microtiter plate. […] The commercial standard used is flusilazole, at equivalent rates.
C) Inoculation/Incubation--50 μl of a 3×10^5 spores/ml suspension obtained using the method above is added to each well. The 96-well plate is incubated for 4-6 days at 25° C., 12 hours fluorescent light.
D) Evaluation--After incubation, each well is visually assessed for growth inhibition on the following 0-3 scale:
0=no inhibition of mycelial growth
1=slight inhibition of mycelial growth
2=moderate inhibition of mycelial growth
3=strong inhibition of mycelial growth

[2] = 20 ppm foliar protectant, * = averaged value
[3] = 100 ppm foliar protectant, * = averaged value
[4] = 500 ppm foliar protectant, four weeks after inoculation

SMILES	WES Prot percent disease control [1, 2] [%]	WES Prot percent disease control [1, 3] [%]	WES Prot percent disease control [1, 4] [%]	IC50 (Succinate Dehydrogenase) [nM]	WGB In Vitro growth inhibition 0-3 scale (Septoria nodorum; 0.1 ppm)	WGB In Vitro growth inhibition 0-3 scale (Septoria nodorum; 0.5 ppm)	WGB In Vitro growth inhibition 0-3 scale (Septoria nodorum; 5.0 ppm)
CC[C@H]1CC[C@@H](c2ccccc2NC(=O)c2cn(C)nc2C(F)F)CC1 [Number 1, 1H-pyrazole-4-carboxamide, 3-(difluoromethyl)-N-[2-(4-ethylcyclohexyl)phenyl]-1-methyl-, cis-]	29	79	100	15	0	3	3
C[C@H]1CCC[C@H](c2ccccc2NC(=O)c2cn(C)nc2C(F)F)C1 (relative stereo) [Number 3, 1H-pyrazole-4-carboxamide, 3-(difluoromethyl)-1-methyl-N-[2-(3-methylcyclohexyl)phenyl]-, trans-]	01	95	–	50	0	0	0
Cn1cc(C(=O)Nc2ccccc2[C@@H]2CCC[C@@H](C(F)(F)F)C2)c(C(F)F)n1 (relative stereo) [Number 6]	–	90	100	520	0	0	1
C[C@@H]1CCC[C@H](c2ccccc2NC(=O)c2cn(C)nc2C(F)F)C1 (relative stereo) [Number 2, 1H-pyrazole-4-carboxamide, 3-(difluoromethyl)-1-methyl-N-[2-(-3-methylcyclohexyl)phenyl]-, cis-]	12	82	–	37	0	1	2
Cn1cc(C(=O)Nc2ccccc2C2CCC(C)(C)CC2)c(C(F)F)n1 [Number 5, 1H-pyrazole-4-carboxamide, 3-(difluoromethyl)-N-(2-(4,4-dimethylcyclohexyl)phenyl]-1-methyl-]	59	99	–	8	0	2	2
Cn1cc(C(=O)Nc2ccccc2[C@H]2CC[C@H](C)CC2)c(C(F)(F)F)n1 [Number 4, 1H-pyrazole-4-carboxamide, 1-methyl-N-[2-(4-methylcyclohexyl)phenyl]-3-(trifluoromethyl)-, trans-]	54	98	100	29	1	1	2
